Here are results for 19 molecules from EP0181129B1, “N6-substituted deoxyribose analogs of adenosines” (WARNER-LAMBERT COMPANY, priority 1984, dated 1986).

A word on the ED50: it is the dose that gives a 50% effect, or the effect in half of the subjects.

Read-outs that look alike come from different tables or passages of the source.

In experiment [1] the target is T1, adenosine A1 receptor (Rattus norvegicus, UniProt P25099).
T1 construct: brain minus cerebellum and brainstem from male Long Evans rats (150-200 g) was homogenized; from tissue; host or cells: rat whole brain minus cerebellum and brainstem, membrane homogenate
T1 sequence (P25099 1-326): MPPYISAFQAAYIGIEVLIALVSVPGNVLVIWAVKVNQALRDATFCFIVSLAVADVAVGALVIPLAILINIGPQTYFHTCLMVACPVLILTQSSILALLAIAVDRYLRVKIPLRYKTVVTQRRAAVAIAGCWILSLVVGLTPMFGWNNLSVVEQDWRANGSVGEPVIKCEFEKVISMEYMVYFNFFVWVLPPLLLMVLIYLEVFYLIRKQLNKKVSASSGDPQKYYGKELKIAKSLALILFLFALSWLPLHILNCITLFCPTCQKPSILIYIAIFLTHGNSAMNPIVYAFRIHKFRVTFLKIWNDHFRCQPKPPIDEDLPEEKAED
Put plainly: Adenosine Receptor Binding - A1 Receptor Affinity (RBA1), [3H]-CHA displacement. The settings on record: rat whole brain membranes, one hour at 25°C. The method, then: While brain minus cerebellum and brainstem from male Long Evans rats (150-200 g) was homogenized in 30 volumes of ice-cold 0.05 M Tris-CHI buffer pH 7.7 using a Brinkman Polytron PT-10, (setting number 6 for 20 seconds) and centrifuged for ten minutes at 20,000 x g (Sorvall RC-2), 4°C. The supernatant was discarded, and the pellet was resuspended and centrifuged as before. The pellet was resuspended in 20 ml Tris-HCI buffer containing two International Units/ml of adenosine deaminase (Sigma type III from calf intestinal mucosa), incubated at 37°C for 30 minutes, then subsequently at 0°C for ten minutes. The homogenate was again centrifuged, and the final pellet was resuspended in ice-cold 0.05 M Tris-HCI buffer pH 7.7 to a concentration of 20 mg/ml original wet tissue weight and used immediately.
Tissue homogenate (10 mg/ml) was incubated in 0.05 M Tris-HCI buffer pH 7.7 containing 1.0 nM (^3H]-N^e-cyclohexyladenosine ([^3H]-CHA) with or without tests agents in triplicate for one hour at 25°C. Incubation volume was 2 ml. Unbound [^3H]-CHA was separated by rapid filtration under reduced pressure through Whatman glass fiber (GF/B) filters. The filters were rinsed three times with 5 ml of ice cold 0.05 M Tris-HCI buffer pH 7.7. The radio-labeled ligand retained on the filter was measured by liquid scintillation spectrophotometry after shaking the filters for one hour or longer on a mechanical shaker in 10 ml of Beckman Ready-Solv HP scintillation cocktail.
Nonspecific binding was defined as the binding which occurred in the presence of 1 mM theophylline. […] The Scatchard plot was calculated by linear regression of the line obtained by plotting the amount of radioligand bound (pmoles/gram of tissue) [formula] Since the amount of radioligand bound was a small fraction of the total amount added, free radioligand was defined as the concentration (nM) of radioligand added to the incubation mixture. The Hill coefficient was calculated by linear regression of the line obtained by plotting the log of the bound radioligand vs the log of the [formula] The maximal number of binding sites (Bmax) was calculated from the Scatchard plot.

Experiment [2] concerns the target T2, adenosine A2 receptor (Rattus norvegicus, UniProt P30543).
T2 construct: Brains were thawed and then kept on ice while the striata were dissected out; tissue Pel-Freez (Rogers, Arkansas); host or cells: rat striatum, membranes
The experiment is described as follows: Adenosine Receptor Binding - A2 Receptor Affinity (RBA2), [3H]NECA displacement. The settings on record: 4 nM [3H]NECA with 50 nM N6-cyclopentyladenosine, rat striatal membranes, 60 minutes at 25°C; read-out: Receptor Binding RBA—2. The method, then: Brains from 200-500 g mixed sex Sprague-Dawley rats were purchased from Pel-Freez (Rogers, Arkansas). Fresh brains from male Long-Evans hooded rats (Blue Spruce Farms, Altamont, NY) gave essentially indentical results. Brains were thawed and then kept on ice while the striata were dissected out. Striata were disrupted in 10 vol of ice-cold 50 mM Tris.HCI (pH 7.7 at 25°C, pH 8.26 at 5°C) (Tris) for 30 seconds in a Polytron PT―10 (Brinkmann) at setting 5. The suspension was centrifuged at 50,000 xg for ten minutes, the supernatant discarded, the pellet resuspended in 10 vol ice-cold Tris as above, recentrifuged, resuspended at 1 g/5 ml, and stored in plastic vials at -70°C (stable for at least six months). When needed, tissue was thawed at room temperature, disrupted in a Polytron, and kept on ice until used.
All incubations were for 60 minutes at 25°C in 12x75 mm glass tubes containing 1 ml Tris with 5 mg original tissue weight of rat weight of rat striatal membranes, 4 nM [^3H]-N-ethyl adenosine-5'-carboxamide ([^3H]NECA), 50 nM N^6-cyclopentyladenosine (to eliminate A1 receptor binding), 10 mM MgCl2, 0.1 units/ml, of adenosine deaminase and 1% dimethylsulfoxide. N^6-Cyclopentyladenosine was dissolved at 10 mM in 0.02 N HCI and diluted in Tris. Stock solutions and dilutions of N^6-cyclopentyladenosine could be stored at -20°C for several months. Test compounds were dissolved at 10 mM in dimethylsulfoxide or the same day as the experiment, and diluted in dimethylsulfoxide to 100x the final incubation concentration. Control incubations received an equal volume (10 µl) of dimethylsulfoxide; the resulting concentration of dimethylsulfoxide had no effect on binding. [^3H]NECA was diluted to 40 nM in Tris. The membrane suspension (5 mg/0.79 ml) contained sufficient MgCl2 and adenosine deaminase to give 10 mM and 0.1 units/ml, respectively, final concentration in the incubation. […] After all additions, the rack of tubes was vortexed, and the tubes were then incubated for 60 min at 25°C in a shaking water bath. The rack of tubes was vortexed an additonal time halfway through the incubation.
Incubations were terminated by filtration through 2.4 cm GF/B filters under reduced pressure. Each tube was filtered as follows: the contents of the tube were poured onto the filter, 4 ml of ice-cold Tris were added to the tube and the contents poured onto the filter, and the filter was washed twice with 4 ml of ice-cold Tris. The filtration was complete in about twelve seconds. Filters were put in scintillation vials, 8 ml of Formula 947 scintillation fluid added, and the vials left overnight, shaken, and counted in a liquid scintillation counter at 40% efficiency.
Nonspecific binding was defined as binding in the presence of […] N^6-cyclopentyladenosine, and specific binding was defined as total binding minus nonspecific binding. The IC50 was calculated by weighted nonlinear least squares curve-fitting to the mass-action equation. [formula] • where Y is cpm bound T is cpm total binding without drug S is cpm specific binding without drug D is the concentration of drug • and K is the IC50 of the drug Weighting factors were calculated under the assumption that the standard deviation was proportional to the predicted value of Y. Nonspecific binding was treated as a very large (infinite) concentration of drug in the computer analysis.

Experiment [3] relates to male Swiss-Webster mice. Put plainly: Antiwrithing (AW) test, acetic acid induced writhing. The settings on record: Mus musculus, ip; administered intraperitoneally to mice; read-out: ED50 (dose necessary to suppress writhing by 50% relative to vehicle controls). The experiment is classed as in vivo. A general note: An intraperitoneal irritant provokes the stretching counted in writhing tests.

Setting [4] is: 1.0 nM [3H]-CHA, read-out: Receptor Binding RBA—1.
Where [5] appears, read: Receptor Binding RBA—1, 1.0 nM [3H]-CHA.

T2 sequence (P30543 whole entry): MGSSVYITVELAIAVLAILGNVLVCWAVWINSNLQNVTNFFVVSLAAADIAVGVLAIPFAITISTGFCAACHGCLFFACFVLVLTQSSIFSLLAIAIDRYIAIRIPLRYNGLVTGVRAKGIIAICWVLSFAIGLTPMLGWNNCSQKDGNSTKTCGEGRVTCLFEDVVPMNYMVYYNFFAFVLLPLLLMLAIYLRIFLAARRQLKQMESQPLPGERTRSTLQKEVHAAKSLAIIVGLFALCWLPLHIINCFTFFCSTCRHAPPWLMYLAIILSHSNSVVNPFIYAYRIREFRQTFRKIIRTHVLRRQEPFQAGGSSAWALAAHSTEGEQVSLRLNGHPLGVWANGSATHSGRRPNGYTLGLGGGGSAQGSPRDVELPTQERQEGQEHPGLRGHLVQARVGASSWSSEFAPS

Turning to `C[C@H]1O[C@@H](n2cnc3c(NCC(c4ccccc4)c4ccccc4)ncnc32)[C@H](O)[C@@H]1O` [Example 1, N^s-[2,2-Diphenylethyl]-5'-deoxyadenosine], the IC50 in experiment [1] (setting [4]) was found to be 227 nM; in experiment [2] it was 1110 nM.

On to `C[C@H]1O[C@@H](n2cnc3c(NC4CCc5ccccc54)ncnc32)[C@H](O)[C@@H]1O` (some centres unmarked) [Example 2, N^6-[1-Indanyl]-5'-deoxyadenosine], for which the IC50 amounted to 1680 nM in experiment [1] (setting [4]) and 21200 nM in experiment [2].

On to `C[C@H](Cc1ccccc1)Nc1ncnc2c1ncn2[C@@H]1O[C@H](C)[C@@H](O)[C@H]1O` [Example 3], for which the values for the IC50 in experiment [1] (setting [4]) and in experiment [2] were 40 nM and 5700 nM, respectively.

Turning to `C[C@@H](Cc1ccccc1)Nc1ncnc2c1ncn2[C@@H]1O[C@H](C)[C@@H](O)[C@H]1O` [Example 4, (S)-N^6-[Phenylisopropyl]-5'-deoxyadenosine], the IC50 in experiment [1] (setting [4]) was 556 nM; in experiment [2] it was 20000 nM.

As to `C[C@H]1O[C@@H](n2cnc3c(NC4CCCCC4)ncnc32)[C@H](O)[C@@H]1O` [Example 6, N^6-[Cyclohexyl]-5'-deoxyadenosine], the values for the IC50 in experiment [1] (setting [4]) and in experiment [2] were 52 nM and 21400 nM, respectively.

For `CSC[C@H]1O[C@@H](n2cnc3c(N[C@H](C)Cc4ccccc4)ncnc32)[C@H](O)[C@@H]1O` [Example 7, (R)-N^6[Phenylisopropyl]-5'-deoxy-5'-thiomethyladenosine], the IC50 in experiment [1] (setting [5]) amounted to 51 nM; in experiment [2] it was 6300 nM.

Turning to `CSC[C@H]1O[C@@H](n2cnc3c(N[C@@H](C)Cc4ccccc4)ncnc32)[C@H](O)[C@@H]1O` [Example 8, (S)-N^6-[Phenylisopropyl]-5'-deoxy-5'-thiomethyladenosine], the IC50 in experiment [1] (setting [5]) turned out to be 700 nM; in experiment [2], 44000 nM.

Take `CSC[C@H]1O[C@@H](n2cnc3c(NC4CCCCC4)ncnc32)[C@H](O)[C@@H]1O` [Example 9, N^6-[Cyclohexyl]-5'-deoxy-5'-thiomethyladenosine]: the IC50 is 9 nM in experiment [1] (setting [5]) and 7400 nM in experiment [2].

Regarding `CSC[C@H]1O[C@@H](n2cnc3c(NC4CCCC4)ncnc32)[C@H](O)[C@@H]1O` [Example 10, N^6-[Cyclopentyl]-5'-deoxy-5'-thiomethyladenosine], the IC50 in experiment [1] (setting [4]) came to 13 nM; in experiment [2], 7200 nM.

Consider `CSC[C@H]1O[C@@H](n2cnc3c(NCC(c4ccccc4)c4ccccc4)ncnc32)[C@H](O)[C@@H]1O` [Example 11, N^6-[2,2-Diphenyl]-5'-deoxy-5'-thiomethyladenosine], for which the IC50 in experiment [1] (setting [5]) is 660 nM; in experiment [2], 2000 nM.

As for `CSC[C@H]1O[C@@H](n2cnc3c(NC4CCc5ccccc54)ncnc32)[C@H](O)[C@@H]1O` (some centres unmarked) [Example 12, N^6-[1-Indanyl]-5'-deoxy-5'-thiomethyladenosine], the IC50 in experiment [1] (setting [5]) is 1490 nM; in experiment [2], 58200 nM. For the same molecule, the ED50 in experiment [3] is 3 mg/kg.

Consider `O[C@@H]1[C@H](O)[C@@H](CCl)O[C@H]1n1cnc2c(NCC(c3ccccc3)c3ccccc3)ncnc21` [Example 13, N^6-[2,2-Diphenylethyl]-5'-deoxy-5'-chloroadenosine], for which the IC50 in experiment [1] (setting [4]) was 53 nM; in experiment [2] it was 240 nM.

Consider `O[C@@H]1[C@H](O)[C@@H](CCl)O[C@H]1n1cnc2c(NC3CCc4ccccc43)ncnc21` (some centres unmarked) [Example 14, N^6-[1-Indanyl]-5'-deoxy-5'-chloroadenosine], for which the IC50 in experiment [1] (setting [4]) is 218 nM; in experiment [2] it was 8650 nM.

Regarding `C[C@H](Cc1ccccc1)Nc1ncnc2c1ncn2[C@@H]1O[C@H](CCl)[C@@H](O)[C@H]1O` [Example 15, (R)-N^6-[Phenylisopropyl]-5'-deoxy-5'-chloro-adenosine], the IC50 in experiment [1] (setting [4]) worked out at 3 nM; in experiment [2], 1600 nM. In experiment [3], the ED50 worked out at 1.8 mg/kg.

As to `C[C@@H](Cc1ccccc1)Nc1ncnc2c1ncn2[C@@H]1O[C@H](CCl)[C@@H](O)[C@H]1O` [Example 16, (S)-N^6-[Phenylisopropyl]-5'-deoxy-5'-chloroadenosine], the figures for the IC50 in experiment [1] (setting [4]) and in experiment [2] were 35 nM and 7900 nM, respectively.

Take `O[C@@H]1[C@H](O)[C@@H](CCl)O[C@H]1n1cnc2c(NC3CCCCC3)ncnc21` [Example 17, N^6-[Cyclohexyl]-5' -deoxy-5' -chloro-adenosine]: the IC50 in experiment [1] (setting [4]) is 2 nM; in experiment [2], 2700 nM.

Take `O[C@@H]1[C@H](O)[C@@H](CCl)O[C@H]1n1cnc2c(NC3CCCC3)ncnc21` [Example 18, N^6-[Cyclopentyl]-5'-deoxy-5'-chloroadenosine]: the IC50 in experiment [1] (setting [4]) is 1.2 nM; in experiment [2] it was 2800 nM.

As for `CC(=O)O[C@@H]1[C@H](OC(C)=O)[C@@H](C)O[C@H]1n1cnc2c(NCc3cccc4ccccc34)ncnc21` [Example 21, N^6-a-Naphthylmethyl-2',3'-di-O-acetyl-5'-deoxyadenosine], the IC50 in experiment [1] (setting [4]) is 2520 nM.

Take `CC(=O)O[C@@H]1[C@H](OC(C)=O)[C@@H](C)O[C@H]1n1cnc2c(NC3CCCc4ccccc43)ncnc21` (some centres unmarked) [Example 22, N^6-1-Tetralinyl-2' ,3'-di-O-acetyl-5'-deoxyadenosine]: the IC50 in experiment [1] (setting [4]) was 607 nM.
